Common to all, as to assay type: biochemical
One experiment concerns the target T1, β-Galactosidase (Escherichia coli, UniProt P00722).
T1 construct: purchased Millipore-Sigma Aldrich
Put plainly: Stability of AlDeLuc to β-Galactosidase. The conditions noted are these: 10 μM; 1 unit of β-Gal. On the procedure:
Exploring the Stability of AlDeLuc to β-Galactosidase. The stability of AlDeLuc (10 μM) against β-Galactosidase (β-gal) was determined using a black 96-well plate and monitored using the IVIS imaging system. In a 96-well plate was added PBS (pH 7.4), β-gal (1 unit), and AlDeLuc. As a positive control to the same plate, was added PBS (pH 7.4), ALDH1A1 (0.4 μM), NAD^+ (1 mM), and acid activated AlDeLuc. Immediately after AlDeLuc was added, ATP-MgSO4 (45 μL, prepared by mixing 17.78 mM ATP-Mg and 35.56 mM MgSO4 in a 1:1 ratio in PBS buffer) and luciferase (5 μL, 1 mg/mL in PBS containing 10% glycerol) were administered to initiate bioluminescence production. Light was collected promptly after mixing, and the total luminescent counts were measured for both conditions. The total volume of each well was 200 μL with 0.1% DMSO. All data reported as the mean±standard deviation (n=4).

The target of the next experiment is T2, ALDH1A3 (Homo sapiens, UniProt P47895).
T2 construct: inferred from Ni-NTA purification; made in house; host or cells: E. coli BL21(DE3)
The experiment in a line: AlDeLuc isoform selectivity assay. The conditions noted are these: 2 μM, pre-activated with HCl, 60 min room temperature. How it is done: (§1) Expression and Purification of ALDH Expression constructs for recombinant human ALDH1A1, ALDH1A2, ALDH1A3, and ALDH2, ALDH3A1, ALDH4A1, and ALDH5A1 were generously provided by Prof. Daria Mochly-Rosen (Stanford, Chemical and Systems Biology). E. coli BL21(DE3) cells with transformed with each of the above constructs. Colonies were selected from an agar plate containing […] ampicillin and grown overnight (37° C., 220 rpm) in LB media containing […] ampicillin. The overnight culture (10 mL) was inoculated into 1000 mL LB supplemented with […] ampicillin. When the O.D. reached ˜0.5, IPTG was added to a final concentration of 1 mM and incubated overnight (30° C., 200 rpm, 18 h). The cells were harvested via centrifugation (4° C., 4,000 rpm, 90 min) and the cell pellets were stored at −80° C. until purification.
(§2) ALDH Isoform Activity Determination. The activity of each isoform of ALDH was confirmed by monitoring the production of NADH at 340 nm when incubated with the most used substrate for that enzyme (i.e., benzaldehyde for ALDH3A1 and propionaldehyde for all other isoforms). Each isoform was diluted with 50 mM triethanolamine (TEA, pH 7.4) to a final concentration of 0.5 μM and placed in a 1 mL quartz cuvette. Prior to measurement, NAD^+ was added to a final concentration of 2.5 mM and the preferred substrate was added to a final concentration of 1 mM. Absorbance spectra was taken from 300 to 500 nm every 30 seconds for 15 minutes. Activity for each enzyme was calculated from the slope of absorbance increase at 340 nm over time.
(§3) AlDeLuc Isoform Selectivity Assay. Activation of AlDeLuc was assessed using the necessary amount of enzyme that gave the activity of 0.5 nmol of substrate turned over/minute. All enzymatic reactions were performed in 50 mM triethanolamine (TEA) buffer (pH 7.4) with 2.5 mM NAD^+. To prepare the probe solution, AlDeLuc was dissolved in DMSO and incubated with 1 M HCl. After an hour, this solution was neutralized with 1 M NaOH, and diluted with PBS. To a clear 24-well plate, TEA buffer, NAD^+, the ALDH isoform, and then AlDeLuc (2 μM) were added sequentially to a final volume of 1 mL. After an hour incubation at room temperature, ATP-MgSO4 (45 μL, prepared by mixing 17.78 mM ATP-Mg and 35.56 mM MgSO4 in a 1:1 ratio in PBS buffer) and luciferase (5 μL, 1 mg/mL in PBS containing 10% glycerol) were added to initiate bioluminescence production. The wells were immediately imaged using the IVIS imaging system in open mode. ROIs were drawn around each well and the signal intensity was quantified using the Living Image Analysis. The signal enhancement was normalized relative to the ALDH2 isoform.

Another experiment deals with T3, ALDH1A1 (Homo sapiens, UniProt P00352).
T3 construct: inferred from Ni-NTA purification; made in house; host or cells: E. coli BL21(DE3)
T3 sequence (P00352 1-501): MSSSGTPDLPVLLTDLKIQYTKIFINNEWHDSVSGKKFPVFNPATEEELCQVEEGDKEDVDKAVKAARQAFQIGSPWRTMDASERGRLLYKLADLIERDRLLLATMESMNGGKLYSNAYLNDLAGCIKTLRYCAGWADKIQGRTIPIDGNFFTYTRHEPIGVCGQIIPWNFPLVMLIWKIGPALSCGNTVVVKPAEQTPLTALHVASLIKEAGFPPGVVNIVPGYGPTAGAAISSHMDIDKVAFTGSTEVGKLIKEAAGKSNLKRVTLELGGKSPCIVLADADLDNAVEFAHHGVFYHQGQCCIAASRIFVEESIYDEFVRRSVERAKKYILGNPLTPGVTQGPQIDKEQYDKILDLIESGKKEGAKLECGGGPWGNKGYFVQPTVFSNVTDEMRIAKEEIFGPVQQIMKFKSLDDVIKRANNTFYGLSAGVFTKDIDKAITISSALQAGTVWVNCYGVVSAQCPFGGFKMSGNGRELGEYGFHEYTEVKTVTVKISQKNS
The experiment in a line: AlDeLuc isoform selectivity assay. The conditions noted are these: 2 μM, pre-activated with HCl, 60 min room temperature. How it is done:
as §1, §2, §3

Another experiment concerns the target T4, ALDH1A2 (Homo sapiens, UniProt O94788).
T4 construct: inferred from Ni-NTA purification; made in house; host or cells: E. coli BL21(DE3)
The experiment in a line: AlDeLuc isoform selectivity assay. The conditions noted are these: 2 μM, pre-activated with HCl, 60 min room temperature. On the procedure: as §1, §2, §3

The next experiment has as its target T5, ALDH4A1 (Homo sapiens, UniProt P30038).
T5 construct: inferred from Ni-NTA purification; made in house; host or cells: E. coli BL21(DE3)
Put plainly: AlDeLuc isoform selectivity assay. The conditions noted are these: 2 μM, pre-activated with HCl, 60 min room temperature. How it is done: as §1, §2, §3

For a further experiment, the target named is T6, ALDH3A1 (Homo sapiens, UniProt P30838).
T6 construct: inferred from Ni-NTA purification; made in house; host or cells: E. coli BL21(DE3)
The experiment in a line: AlDeLuc isoform selectivity assay. The conditions noted are these: 2 μM, pre-activated with HCl, 60 min room temperature. On the procedure:
as §1, §2, §3

The target in a further experiment is T7, ALDH2 (Homo sapiens, UniProt P05091).
T7 construct: inferred from Ni-NTA purification; made in house; host or cells: E. coli BL21(DE3)
The experiment in a line: AlDeLuc isoform selectivity assay. The conditions noted are these: 2 μM, pre-activated with HCl, 60 min room temperature. On the procedure: as §1, §2, §3

Another experiment concerns the target T8, ALDH5A1 (Homo sapiens, UniProt P51649).
T8 construct: inferred from Ni-NTA purification; made in house; host or cells: E. coli BL21(DE3)
The experiment in a line: AlDeLuc isoform selectivity assay. The conditions noted are these: 2 μM, pre-activated with HCl, 60 min room temperature. How it is done:
as §1, §2, §3

The structures appear in SMILES notation.

T5 sequence (P30038 25-563): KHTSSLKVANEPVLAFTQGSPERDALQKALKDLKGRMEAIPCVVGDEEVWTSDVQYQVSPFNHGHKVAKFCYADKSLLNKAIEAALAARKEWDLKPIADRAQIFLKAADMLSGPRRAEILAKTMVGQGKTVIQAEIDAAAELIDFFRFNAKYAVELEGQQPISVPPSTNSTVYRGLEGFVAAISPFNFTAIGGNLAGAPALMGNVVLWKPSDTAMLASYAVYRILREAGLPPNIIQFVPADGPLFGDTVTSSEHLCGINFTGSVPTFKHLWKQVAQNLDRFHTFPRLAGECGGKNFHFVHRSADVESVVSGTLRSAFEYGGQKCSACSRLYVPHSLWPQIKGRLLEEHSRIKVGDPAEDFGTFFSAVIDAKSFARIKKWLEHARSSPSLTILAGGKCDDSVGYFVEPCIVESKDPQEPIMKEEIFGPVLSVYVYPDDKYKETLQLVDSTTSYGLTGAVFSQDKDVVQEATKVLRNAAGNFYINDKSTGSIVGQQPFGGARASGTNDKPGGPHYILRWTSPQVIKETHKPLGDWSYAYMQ
T7 sequence (P05091 18-517): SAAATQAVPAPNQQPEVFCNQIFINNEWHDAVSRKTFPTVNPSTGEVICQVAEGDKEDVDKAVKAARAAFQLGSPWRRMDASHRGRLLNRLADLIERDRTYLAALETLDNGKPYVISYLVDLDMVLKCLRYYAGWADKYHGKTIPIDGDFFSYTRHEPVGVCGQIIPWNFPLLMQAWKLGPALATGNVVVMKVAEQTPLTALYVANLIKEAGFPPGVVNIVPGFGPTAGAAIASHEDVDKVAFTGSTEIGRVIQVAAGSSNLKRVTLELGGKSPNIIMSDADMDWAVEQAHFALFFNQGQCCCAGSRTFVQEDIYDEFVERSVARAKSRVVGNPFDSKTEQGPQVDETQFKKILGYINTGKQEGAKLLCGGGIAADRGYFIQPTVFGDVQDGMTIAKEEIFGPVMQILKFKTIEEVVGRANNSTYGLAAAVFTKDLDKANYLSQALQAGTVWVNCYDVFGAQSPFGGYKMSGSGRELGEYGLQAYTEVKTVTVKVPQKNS
T2 sequence (P47895 whole entry): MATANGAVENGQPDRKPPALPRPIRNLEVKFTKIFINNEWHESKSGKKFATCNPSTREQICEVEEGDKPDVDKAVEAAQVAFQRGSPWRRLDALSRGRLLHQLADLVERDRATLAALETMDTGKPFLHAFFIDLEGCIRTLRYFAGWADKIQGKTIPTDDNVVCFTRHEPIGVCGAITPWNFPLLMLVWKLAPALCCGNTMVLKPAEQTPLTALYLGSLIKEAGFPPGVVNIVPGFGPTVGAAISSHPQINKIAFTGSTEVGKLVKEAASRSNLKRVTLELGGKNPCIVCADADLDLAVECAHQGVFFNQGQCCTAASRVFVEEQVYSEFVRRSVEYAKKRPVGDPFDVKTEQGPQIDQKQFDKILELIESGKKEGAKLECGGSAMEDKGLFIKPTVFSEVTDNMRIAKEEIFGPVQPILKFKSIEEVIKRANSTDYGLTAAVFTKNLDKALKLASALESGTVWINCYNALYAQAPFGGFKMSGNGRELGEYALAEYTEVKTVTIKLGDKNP
T4 sequence (O94788 whole entry): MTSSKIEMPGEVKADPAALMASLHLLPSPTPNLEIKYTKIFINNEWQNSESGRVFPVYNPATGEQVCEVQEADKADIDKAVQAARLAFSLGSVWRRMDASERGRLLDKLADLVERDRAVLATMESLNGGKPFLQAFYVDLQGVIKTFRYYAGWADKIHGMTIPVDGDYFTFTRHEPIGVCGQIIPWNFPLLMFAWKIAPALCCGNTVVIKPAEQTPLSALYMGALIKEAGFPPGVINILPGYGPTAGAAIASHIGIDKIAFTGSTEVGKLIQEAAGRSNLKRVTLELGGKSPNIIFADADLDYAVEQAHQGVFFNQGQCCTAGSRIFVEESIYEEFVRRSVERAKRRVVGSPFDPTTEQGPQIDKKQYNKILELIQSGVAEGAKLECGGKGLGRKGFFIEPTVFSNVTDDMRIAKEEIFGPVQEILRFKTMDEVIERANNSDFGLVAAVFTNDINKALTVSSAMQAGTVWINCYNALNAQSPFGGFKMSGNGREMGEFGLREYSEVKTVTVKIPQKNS
T6 sequence (P30838 whole entry): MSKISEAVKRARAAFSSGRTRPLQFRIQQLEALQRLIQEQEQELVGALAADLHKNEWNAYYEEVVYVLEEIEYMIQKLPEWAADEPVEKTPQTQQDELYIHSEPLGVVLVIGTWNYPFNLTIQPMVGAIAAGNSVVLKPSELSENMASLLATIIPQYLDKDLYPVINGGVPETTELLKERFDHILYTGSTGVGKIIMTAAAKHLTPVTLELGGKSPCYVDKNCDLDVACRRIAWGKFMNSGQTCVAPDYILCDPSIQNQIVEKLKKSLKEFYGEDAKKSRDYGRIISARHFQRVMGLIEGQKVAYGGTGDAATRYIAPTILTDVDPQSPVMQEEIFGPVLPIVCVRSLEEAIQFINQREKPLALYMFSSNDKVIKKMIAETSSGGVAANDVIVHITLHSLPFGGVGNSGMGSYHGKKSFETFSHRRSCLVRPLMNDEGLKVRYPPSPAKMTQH
T8 sequence (P51649 48-535): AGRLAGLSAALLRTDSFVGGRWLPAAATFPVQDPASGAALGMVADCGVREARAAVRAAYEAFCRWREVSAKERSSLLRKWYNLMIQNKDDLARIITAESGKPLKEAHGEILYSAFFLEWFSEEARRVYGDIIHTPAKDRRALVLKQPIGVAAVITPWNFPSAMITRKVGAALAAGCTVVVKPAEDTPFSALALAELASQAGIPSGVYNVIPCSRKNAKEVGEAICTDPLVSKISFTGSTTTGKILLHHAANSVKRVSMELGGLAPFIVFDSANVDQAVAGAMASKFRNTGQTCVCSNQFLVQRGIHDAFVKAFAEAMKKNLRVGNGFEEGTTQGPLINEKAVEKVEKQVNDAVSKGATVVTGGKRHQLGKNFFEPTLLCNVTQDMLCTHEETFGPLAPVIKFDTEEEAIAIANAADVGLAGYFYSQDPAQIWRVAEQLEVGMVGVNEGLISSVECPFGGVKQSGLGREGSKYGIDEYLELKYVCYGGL
T1 sequence (P00722 2-1024): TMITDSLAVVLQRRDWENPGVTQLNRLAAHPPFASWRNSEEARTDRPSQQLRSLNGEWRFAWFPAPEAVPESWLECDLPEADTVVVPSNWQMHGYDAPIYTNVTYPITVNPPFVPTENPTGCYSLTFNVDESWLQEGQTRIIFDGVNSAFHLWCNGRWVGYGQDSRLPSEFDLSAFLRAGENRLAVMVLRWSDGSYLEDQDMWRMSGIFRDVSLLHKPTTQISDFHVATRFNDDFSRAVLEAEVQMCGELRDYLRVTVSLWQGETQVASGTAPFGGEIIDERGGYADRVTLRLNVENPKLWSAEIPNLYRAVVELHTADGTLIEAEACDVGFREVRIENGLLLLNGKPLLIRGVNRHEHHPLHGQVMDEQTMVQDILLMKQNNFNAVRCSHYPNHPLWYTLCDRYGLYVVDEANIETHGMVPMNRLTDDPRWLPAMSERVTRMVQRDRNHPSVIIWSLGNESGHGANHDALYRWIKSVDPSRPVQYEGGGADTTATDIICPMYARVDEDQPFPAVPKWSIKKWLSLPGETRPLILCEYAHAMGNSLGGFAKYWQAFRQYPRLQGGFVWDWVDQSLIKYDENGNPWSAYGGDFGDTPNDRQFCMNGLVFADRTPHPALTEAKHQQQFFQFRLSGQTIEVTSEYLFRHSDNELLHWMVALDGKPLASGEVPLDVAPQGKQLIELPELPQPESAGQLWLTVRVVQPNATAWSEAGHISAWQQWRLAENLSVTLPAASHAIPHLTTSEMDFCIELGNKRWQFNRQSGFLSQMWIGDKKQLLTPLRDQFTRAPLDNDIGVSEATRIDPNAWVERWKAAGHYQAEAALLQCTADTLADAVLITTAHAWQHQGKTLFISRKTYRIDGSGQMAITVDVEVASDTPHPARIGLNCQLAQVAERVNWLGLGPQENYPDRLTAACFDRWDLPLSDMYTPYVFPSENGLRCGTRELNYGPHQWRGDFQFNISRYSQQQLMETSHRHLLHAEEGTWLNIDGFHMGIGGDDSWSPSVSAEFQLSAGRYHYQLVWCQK

For the molecule `CCN(CC)c1ccc2nc(C3=N[C@@H](C(OC)OC)CS3)sc2c1` [AlDeLuc, (S)-2-(4-(dimethoxymethyl)-4,5-dihydrothiazol-2-yl)-N,N-diethylbenzo[d]thiazol-6-amine], the stability of acetal result at β-Galactosidase is “completely stable”. The bioluminescence entry at ALDH1A3 is “only treatment with ALDH1A1 and luciferase generated significant bioluminescence”; on ALDH1A1, “significant bioluminescence”; on ALDH1A2 it was “only treatment with ALDH1A1 and luciferase generated significant bioluminescence”; on ALDH4A1 it was “only treatment with ALDH1A1 and luciferase generated significant bioluminescence”; on ALDH3A1, “only treatment with ALDH1A1 and luciferase generated significant bioluminescence”; at ALDH2 it was “only treatment with ALDH1A1 and luciferase generated significant bioluminescence”. Moreover, the bioluminescence result on ALDH5A1 is “only treatment with ALDH1A1 and luciferase generated significant bioluminescence”.

Source of the values: patent publication US20250282770A1, “BIOLUMINESCENT PROBES TO TRACK STEM CELLS IN VIVO” (THE BOARD OF TRUSTEES OF THE UNIVERSITY OF ILLINOIS, priority 2024, published 2025).
